One series deals with human ether a go-go related gene (hERG) K+ channel (Homo sapiens (Human), UniProt Q12809). Kind of series: hERG assay, IonWorks patch clamp electrophysiology. The settings on record: Chinese Hamster Lung cell line stably expressing hERG, maximum assay concentration 11 uM. The format is cell-based. As to the method:
Compounds of the invention were tested for inhibition of the human ether a go-go related gene (hERG) K^+ channel using IonWorks patch clamp electrophysiology. 8 Point concentration-response curves were generated on two occasions using 3-fold serial dilutions from the maximum assay concentration (11 uM). Electrophysiological recordings were made from a Chinese Hamster Lung cell line stably expressing the full length hERG channel. Single cell ion currents were measured in the perforated patch clamp configuration (100 ug/mL amphoterocin) at room temperature using an IonWorks Quattro instrument. The internal solution contained 140 mM KCl, 1 mM MgCl2, 1 mM EGTA and 20 mM HEPES and was buffered to pH 7.3. The external solution contained 138 mM NaCl, 2.7 mM KCl, 0.9 mM CaCl2, 0.5 mM MgCl2, 8 mM Na2HPO4 and 1.5 mM KH2PO4, and was buffered to pH 7.3. […] This sequence was repeated 5 times at a frequency of 0.25 Hz. Currents were measured from the tail step at the 5th pulse, and referenced to the holding current. Compounds were incubated for 6-7 min prior to a second measurement of the hERG signal using an identical pulse train. A minimum of 17 cells were required for each plC50 curve fit. A control compound (quinidine) was used (see Table 20 below).
A general note: Block of hERG is tested as a sign of cardiac risk.
Sequence of human ether a go-go related gene (hERG) K+ channel (Q12809 whole entry): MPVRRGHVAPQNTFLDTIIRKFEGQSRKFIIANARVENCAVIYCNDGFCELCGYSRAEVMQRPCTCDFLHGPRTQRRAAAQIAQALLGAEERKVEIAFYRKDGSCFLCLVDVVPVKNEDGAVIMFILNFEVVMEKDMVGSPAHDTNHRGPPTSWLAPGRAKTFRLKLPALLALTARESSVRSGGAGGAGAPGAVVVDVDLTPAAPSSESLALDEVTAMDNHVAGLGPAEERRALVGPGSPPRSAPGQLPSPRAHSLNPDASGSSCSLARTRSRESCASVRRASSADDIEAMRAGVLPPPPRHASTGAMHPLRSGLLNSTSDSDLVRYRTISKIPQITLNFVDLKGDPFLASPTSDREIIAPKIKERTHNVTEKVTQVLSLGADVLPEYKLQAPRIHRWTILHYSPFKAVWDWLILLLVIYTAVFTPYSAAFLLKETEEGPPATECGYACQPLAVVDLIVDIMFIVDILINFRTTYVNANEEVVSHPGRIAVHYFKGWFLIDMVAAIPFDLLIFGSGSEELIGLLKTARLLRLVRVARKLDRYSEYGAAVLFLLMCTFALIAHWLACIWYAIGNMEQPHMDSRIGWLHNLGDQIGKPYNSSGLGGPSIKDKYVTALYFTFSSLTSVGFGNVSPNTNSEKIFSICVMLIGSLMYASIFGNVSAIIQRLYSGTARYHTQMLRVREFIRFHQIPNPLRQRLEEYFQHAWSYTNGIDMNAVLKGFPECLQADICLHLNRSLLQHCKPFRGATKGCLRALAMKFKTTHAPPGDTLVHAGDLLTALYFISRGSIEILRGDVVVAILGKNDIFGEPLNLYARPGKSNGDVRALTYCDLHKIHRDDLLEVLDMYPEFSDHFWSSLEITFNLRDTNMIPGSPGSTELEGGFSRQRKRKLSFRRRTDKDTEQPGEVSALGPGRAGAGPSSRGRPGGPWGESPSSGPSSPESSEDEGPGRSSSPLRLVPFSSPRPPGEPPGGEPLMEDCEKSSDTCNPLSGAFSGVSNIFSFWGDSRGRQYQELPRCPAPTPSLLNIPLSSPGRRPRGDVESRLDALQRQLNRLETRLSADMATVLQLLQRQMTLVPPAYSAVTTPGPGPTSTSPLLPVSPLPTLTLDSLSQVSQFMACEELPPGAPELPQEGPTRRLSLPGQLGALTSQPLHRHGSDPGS
What is called IC50 is the concentration needed to halve the response being measured. In the case of `Clc1ccc(-n2c(-c3cnc(N4CCOCC4)nc3)nc3ccncc32)cc1` [Example 51, 4-{5-[3-(4-Chlorophenyl)-3H-imidazo[4,5-c]pyridin-2-yl]pyrimidin-2-yl}morpholine], the IC50 lay within 1000 to 10000 nM. The same measure, in the same setting: to `Fc1cnccc1-c1cc2ccncc2n1-c1ccc(Cl)cc1` [Example 152, 4-[1-(4-Chlorophenyl)-1H-pyrrolo[2,3-c]pyridin-2-yl]-3-fluoropyridine] belongs 1000 to 10000 nM; to `Clc1ccc(-n2c(-c3cccnc3)cc3ccncc32)cc1` [Example 122, 3-[1-(4-Chlorophenyl)-1H-pyrrolo[2,3-c]pyridin-2-yl]pyridine], 1000 to 10000 nM. `Clc1ccc(-n2c(-c3ccncc3)cc3ccncc32)cc1` [Example 120, 4-[1-(4-Chlorophenyl)-1H-pyrrolo[2,3-c]pyridin-2-yl]pyridine] registered an IC50 of 1000 to 10000 nM. The molecule `Clc1ccc(-n2c(-c3ccc(CN4CCOCC4)nc3)cc3ccncc32)cc1` [Example 140, 4-({5-[1-(4-Chlorophenyl)-1H-pyrrolo[2,3-c]pyridin-2-yl]pyridin-2-yl}methyl)morpholine] gave an IC50 of 1000 to 10000 nM.

`Clc1ccc(-n2c(-c3cnc(NC4CCOCC4)nc3)cc3ccncc32)cc1` [Example 139, 5-[1-(4-Chlorophenyl)-1H-pyrrolo[2,3-c]pyridin-2-yl]-N-(oxan-4-yl)pyrimidin-2-amine] yielded an IC50 of 100 to 1000 nM. With `O=c1cc(-c2cc3ccncc3n2-c2ccc(Cl)cc2)ccn1C1CC1` [Example 138, 4-[1-(4-Chlorophenyl)-1H-pyrrolo[2,3-c]pyridin-2-yl]-1-cyclopropyl-1,2-dihydropyridin-2-one], the IC50 was 1000 to 10000 nM. With `Cc1ccc(-n2c(-c3ccc(N4CCOCC4)nc3)nc3ccncc32)c(F)c1` [Example 67, 4-{5-[3-(2-Fluoro-4-methylphenyl)-3H-imidazo[4,5-c]pyridin-2-yl]pyridin-2-yl}morpholine], the IC50 fell in the range of 1000 to 10000 nM.

In the case of `Clc1ccc(-n2c(-c3ccc(N4CCOCC4)nn3)nc3ccncc32)cc1` [Example 4, 4-{6-[3-(4-Chlorophenyl)-3H-imidazo[4,5-c]pyridin-2-yl]pyridazin-3-yl}morpholine], the IC50 lay within 1000 to 10000 nM. Molecule `Clc1ccc(-n2c(-c3cnc(N4CCOCC4)nc3)cc3ccncc32)cc1` [Example 127, 4-{5-[1-(4-Chlorophenyl)-1H-pyrrolo[2,3-c]pyridin-2-yl]pyrimidin-2-yl}morpholine] came in with an IC50 of 100 to 1000 nM. The same measure, in the same setting: next, `Nc1cc(-c2cc3ccncc3n2-c2ccc(Cl)cc2)ccn1` [Example 147, 4-[1-(4-Chlorophenyl)-1H-pyrrolo[2,3-c]pyridin-2-yl]pyridin-2-amine]: 1000 to 10000 nM; `CS(=O)(=O)NC1CCN(c2ccc(-c3nc4ccncc4n3-c3ccc(Cl)cc3)cn2)CC1` [Example 88, N-(1-{5-[3-(4-Chlorophenyl)-3H-imidazo[4,5-c]pyridin-2-yl]pyridin-2-yl}piperidin-4-yl)methanesulfonamide]: 1000 to 10000 nM. For `Clc1ccc(-n2c(-c3ccc(N4CCOCC4)nc3)nc3ccncc32)cc1` [Example 47, 4-{5-[3-(4-Chlorophenyl)-3H-imidazo[4,5-c]pyridin-2-yl]pyridin-2-yl}morpholine], the IC50 fell in the range of 1000 to 10000 nM.

The target of a further series is purified recombinantly expressed human SSAO (Homo sapiens (Human), UniProt Q16853). Kind of series: SSAO enzyme inhibition assay (HRP-coupled hydrogen peroxide detection or 14C-benzaldehyde detection, benzylamine substrate). The format is biochemical. The note with it: human recombinant SSAO, RT. On the procedure: All primary assays were performed at RT. with purified recombinantly expressed human SSAO. Enzyme was prepared essentially as described in Öhman et al. (Protein Expression and Purification 46 (2006) 321-331). In addition, secondary- and selectivity assays were performed using SSAO prepared from various tissues or purified rat recombinant SSAO. The enzyme activity was assayed with benzylamine as substrate by measuring either benzaldehyde production, using ^14C-labeled substrate, or by utilizing the production of hydrogen peroxide in a horseradish peroxidase (HRP) coupled reaction. Briefly, test compounds were dissolved in dimethyl sulfoxide (DMSO) to a concentration of 10 mM. Dose-response measurements were assayed by either creating 1:10 serial dilutions in DMSO to produce a 7 point curve or by making 1:3 serial dilutions in DMSO to produce 11 point curves.
Sequence of purified recombinantly expressed human SSAO (Q16853 29-763): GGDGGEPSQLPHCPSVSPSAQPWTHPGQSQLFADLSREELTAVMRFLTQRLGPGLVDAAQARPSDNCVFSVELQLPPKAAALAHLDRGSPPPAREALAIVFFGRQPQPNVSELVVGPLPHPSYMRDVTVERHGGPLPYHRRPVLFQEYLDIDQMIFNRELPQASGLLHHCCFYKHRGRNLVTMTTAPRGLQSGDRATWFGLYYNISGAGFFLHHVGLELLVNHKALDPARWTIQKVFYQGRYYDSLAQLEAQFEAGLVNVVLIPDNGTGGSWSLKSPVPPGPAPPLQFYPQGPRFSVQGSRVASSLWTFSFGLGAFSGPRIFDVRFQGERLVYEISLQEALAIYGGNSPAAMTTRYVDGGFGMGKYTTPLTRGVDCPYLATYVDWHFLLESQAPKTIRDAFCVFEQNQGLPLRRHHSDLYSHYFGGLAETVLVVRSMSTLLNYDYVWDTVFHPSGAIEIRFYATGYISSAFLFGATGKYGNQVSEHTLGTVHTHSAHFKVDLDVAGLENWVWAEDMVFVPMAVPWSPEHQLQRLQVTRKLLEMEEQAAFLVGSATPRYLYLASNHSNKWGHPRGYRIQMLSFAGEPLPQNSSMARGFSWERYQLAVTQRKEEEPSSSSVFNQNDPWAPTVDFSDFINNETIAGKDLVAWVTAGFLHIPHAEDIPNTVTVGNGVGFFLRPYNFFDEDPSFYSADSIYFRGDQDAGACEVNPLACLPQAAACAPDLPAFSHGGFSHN
In a horseradish peroxidase (HRP) coupled reaction, hydrogen peroxide oxidation of 10-acetyl-3,7-dihydroxyphenoxazine produced resorufin, which is a highly fluorescent compound (Zhout and Panchuk-Voloshina. Analytical Biochemistry 253 (1997) 169-174; Amplex® Red Hydrogen Peroxide/peroxidase Assay kit, Invitrogen A22188). Enzyme and compounds in 50 mM sodium phosphate, pH 7.4 were set to pre-incubate in flat-bottomed microtiter plates for approximately 15 min before initiating the reaction by addition of a mixture of HRP, benzylamine and Amplex reagent. Benzylamine concentration was fixed at a concentration corresponding to the Michaelis constant, determined using standard procedures. Fluorescence intensity was then measured at several time points during 1-2 h, exciting at 544 nm and reading the emission at 590 nm. For the human SSAO assay final concentrations of the reagents in the assay wells were: SSAO enzyme 1 ug/ml, benzylamine 100 uM, Amplex reagent 20 uM, HRP 0.1 U/mL and varying concentrations of test compound. The inhibition was measured as % decrease of the signal compared to a control without inhibitor (only diluted DMSO). The background signal from a sample containing no SSAO enzyme was subtracted from all data points. Data was fitted to a four parameter logistic model and IC50 values were calculated using the GraphPad Prism 4 or XLfit 4 programs.
SSAO activity was assayed using 14C-labeled benzylamine and analysed by measuring radioactive benzaldehyde. In a white 96-well optiplate (Packard), 20 uL of diluted test compound was pre-incubated at room temperature with 20 uL SSAO enzyme for approximately 15 min with continuous agitation. All dilutions were made with PBS. The reaction was initiated by adding 20 uL of the benzylamine substrate solution containing [7-14C] Benzylamine hydrochloride (CFA589, GE Healthcare). The plate was incubated for 1 h as above after which the reaction was stopped by acidification (10 uL 1M aq HCl). Then 90 uL Micro Scint-E solution (Perkin-Elmer) was added to each well and the plate was continuously mixed for 15 min. Phase separation occurred instantly and activity was read in a Topcount scintillation counter (Perkin-Elmer). In the final reaction well, the human recombinant SSAO concentration was 10 ug/ml. In order to optimize sensitivity, the substrate concentration was decreased as compared to the HRP coupled assay in order to get a higher fraction of radioactive product. In the human SSAO assay, benzylamine concentration was 40 uM (0.2 uCi/mL). Data was analysed as above.
In the case of `Fc1cnccc1-c1cc2ccncc2n1-c1ccc(Cl)cc1` [Example 152, 4-[1-(4-Chlorophenyl)-1H-pyrrolo[2,3-c]pyridin-2-yl]-3-fluoropyridine], the IC50 is 200 to 1200 nM.

In the case of `Clc1ccc(-n2c(-c3cccnc3)cc3ccncc32)cc1` [Example 122, 3-[1-(4-Chlorophenyl)-1H-pyrrolo[2,3-c]pyridin-2-yl]pyridine], the IC50 is 50 to 200 nM. In the case of `Clc1ccc(-n2c(-c3ccncc3)cc3ccncc32)cc1` [Example 120, 4-[1-(4-Chlorophenyl)-1H-pyrrolo[2,3-c]pyridin-2-yl]pyridine], the IC50 was 200 to 1200 nM. Turning to `Cc1ccc(-n2c(-c3ccc(N4C[C@@H](C)O[C@@H](C)C4)nc3)nc3ccncc32)cn1` [Example 103, (2R,6S)-2,6-Dimethyl-4-{5-[3-(6-methylpyridin-3-yl)-3H-imidazo[4,5-c]pyridin-2-yl]pyridin-2-yl}morpholine; tris(trifluoroacetic acid)], the concentration for half-maximal inhibition (IC50) fell in the range of 50 to 200 nM. For `CN1CCN(Cc2cccc(-c3nc4ccncc4n3-c3ccc(Cl)cc3)c2)CC1` [Example 45, 1-({3-[3-(4-Chlorophenyl)-3H-imidazo[4,5-c]pyridin-2-yl]phenyl}methyl)-4-methylpiperazine; formic acid], the IC50 was in the range of 200 to 1200 nM. For `Clc1ccc(-n2c(-c3cnc(NC4CCOCC4)cn3)nc3ccncc32)cc1` [Example 7, 5-[3-(4-Chlorophenyl)-3H-imidazo[4,5-c]pyridin-2-yl]-N-(oxan-4-yl)pyrazin-2-amine], the IC50 is 50 to 200 nM.

Consider `Fc1cc(-n2c(-c3cnc(N4CCOCC4)nc3)nc3ccncc32)ccc1Cl` [Example 74, 4-{5-[3-(4-Chloro-3-fluorophenyl)-3H-imidazo[4,5-c]pyridin-2-yl]pyrimidin-2-yl}morpholine], for which the IC50 was 200 to 1200 nM. Take `Fc1cc(Cl)ccc1-n1c(-c2ccc(N3CCOCC3)nc2)nc2ccncc21` [Example 80, 4-{5-[3-(4-Chloro-2-fluorophenyl)-3H-imidazo[4,5-c]pyridin-2-yl]pyridin-2-yl}morpholine]: the IC50 lay in the range of 50 to 200 nM. As to `COc1nc(N2CCOCC2)ccc1-c1nc2ccncc2n1-c1ccc(F)cc1` [Example 28, 4-{5-[3-(4-Fluorophenyl)-3H-imidazo[4,5-c]pyridin-2-yl]-6-methoxypyridin-2-yl}morpholine], the IC50 was 50 to 200 nM. Still for that read-out and setting: next, `Clc1ccc(-n2c(-c3ccc(-n4cccn4)nc3)cc3ccncc32)cc1` [Example 151, 5-[1-(4-Chlorophenyl)-1H-pyrrolo[2,3-c]pyridin-2-yl]-2-(1H-pyrazol-1-yl)pyridine; bis(trifluoroacetic acid)]: 50 to 200 nM; `Clc1ccc(-n2c(-c3cnc(N4CCOCC4)cn3)nc3ccncc32)cc1` [Example 5, 4-{5-[3-(4-Chlorophenyl)-3H-imidazo[4,5-c]pyridin-2-yl]pyrazin-2-yl}morpholine]: 50 to 200 nM.

Regarding `Cc1ccc(-n2c(-c3ccc(N4CCOCC4)nc3)nc3ccncc32)cn1` [Example 64, 4-{5-[3-(6-Methylpyridin-3-yl)-3H-imidazo[4,5-c]pyridin-2-yl]pyridin-2-yl}morpholine], the IC50 was in the range of 200 to 1200 nM. Take `O=c1cc(-c2nc3ccncc3n2-c2ccc(Cl)cc2F)ccn1C1CC1` [Example 116, 4-[3-(4-Chloro-2-fluorophenyl)-3H-imidazo[4,5-c]pyridin-2-yl]-1-cyclopropyl-1,2-dihydropyridin-2-one]: the IC50 lay within 50 to 200 nM. With `Cc1ccc(-n2c(-c3cnc(N4C[C@@H](C)O[C@@H](C)C4)nc3)nc3ccncc32)nc1` [Example 36, (2R,6S)-2,6-Dimethyl-4-{5-[3-(5-methylpyridin-2-yl)-3H-imidazo[4,5-c]pyridin-2-yl]pyrimidin-2-yl}morpholine], the IC50 is 50 to 200 nM.

Consider `Nc1ncc(-c2nc3ccncc3n2-c2ccc(Cl)cc2)cn1` [Example 31, 5-[3-(4-Chlorophenyl)-3H-imidazo[4,5-c]pyridin-2-yl]pyrimidin-2-amine], for which the IC50 was 200 to 1200 nM. Take `CN1CCN(c2ncc(-c3nc4ccncc4n3-c3ccc(F)cc3)cn2)CC1=O` [Example 40, 4-{5-[3-(4-Fluorophenyl)-3H-imidazo[4,5-c]pyridin-2-yl]pyrimidin-2-yl}-1-methylpiperazin-2-one]: the IC50 was 50 to 200 nM.
